The structures appear in SMILES notation. “And” between values parts separate entries of the source, which are not always exact repeats. Equal values may be shown once.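 Cultured in 96-well plates, cells were exposed to test compound for 48 hours across five concentrations. GI50 is the concentration that inhibits growth by half. TGI: total growth inhibition.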 Bounds are passed on as bounds.

Some test systems named below: COLO 205 colon; EKVX NSCLC; LOX IMVI melanoma; MCF7 breast; NCI-H460 lung; NCI/ADR-RES ovarian; OVCAR-4 ovarian; SNB-75 CNS; T-47D breast; TK-10 renal.
Holding throughout (assay): inhibition of tumour cell growth, NCI panel, 48 h

On to `CCCNc1ncnc2[nH]ncc12`, for which the TGI in the assay on COLO 205 colon, with EKVX NSCLC, in the assay with LOX IMVI melanoma, in the assay with MCF7 breast, in the assay on NCI-H460 lung and in the assay with NCI/ADR-RES ovarian was > 100 µM each time. Besides, the TGI in the assay with OVCAR-4 ovarian, in the assay with SNB-75 CNS, in the assay on T-47D breast and in the assay with TK-10 renal was > 100 µM each time.
In the case of `CCOC(=O)C1CCCCN1CCc1c[nH]c2ccccc12` (configuration not stated), the TGI in the assay with COLO 205 colon, with EKVX NSCLC, in the assay on LOX IMVI melanoma, in the assay with MCF7 breast, with NCI-H460 lung and in the assay with NCI/ADR-RES ovarian was > 100 µM each time. The TGI was > 100 µM with OVCAR-4 ovarian, > 100 µM with SNB-75 CNS, 97.1 µM in the assay on T-47D breast and > 100 µM in the assay with TK-10 renal.
Take `Cc1ccc(/C(O)=C/c2nc3ccc([N+](=O)[O-])cc3nc2/C=C(\O)c2ccc(C)cc2)cc1`: the TGI with COLO 205 colon, in the assay with EKVX NSCLC, in the assay on LOX IMVI melanoma, in the assay with MCF7 breast, with NCI-H460 lung and in the assay on NCI/ADR-RES ovarian was > 100 µM each time. In addition, the TGI in the assay on OVCAR-4 ovarian was > 100 µM; in the assay with SNB-75 CNS it was 36.8 µM; with T-47D breast it was > 100 µM; in the assay with TK-10 renal, > 100 µM.
Turning to `NS(=O)(=O)c1ccc(NNc2c3ccccc3nc3c(C(=O)Nc4ccc(S(=O)(=O)Nc5ncccn5)cc4)cccc23)cc1`, the TGI in the assay with COLO 205 colon, in the assay on EKVX NSCLC, with LOX IMVI melanoma, in the assay with MCF7 breast, in the assay with NCI-H460 lung and in the assay on NCI/ADR-RES ovarian was > 25 µM each time. Also, the TGI in the assay on OVCAR-4 ovarian, in the assay with SNB-75 CNS, in the assay on T-47D breast and with TK-10 renal was > 25 µM throughout.
On to `C(/Cc1ccc2c(c1)OCO2)=N\NC1=NCCCN1`, for which the TGI with COLO 205 colon, in the assay with EKVX NSCLC, with LOX IMVI melanoma, with MCF7 breast, in the assay with NCI-H460 lung and with NCI/ADR-RES ovarian was > 100 µM throughout. The TGI with OVCAR-4 ovarian is > 100 µM; with SNB-75 CNS, 81.1 µM; with T-47D breast it was > 100 µM; in the assay on TK-10 renal, > 100 µM.
`COc1ccc(-c2cc(C(O)C3CCCCN3)c3ccccc3n2)cc1` (configuration not stated): the TGI in the assay on COLO 205 colon turned out to be 3.54 µM; in the assay with EKVX NSCLC, 20.2 µM; in the assay on LOX IMVI melanoma, 16 µM; in the assay with MCF7 breast it was 14.2 µM; in the assay on NCI-H460 lung, 10.4 µM; with NCI/ADR-RES ovarian, 39 µM. For the same molecule, the TGI in the assay on OVCAR-4 ovarian was 27.5 µM; with SNB-75 CNS it was 17.1 µM; in the assay on T-47D breast, 14.1 µM; in the assay with TK-10 renal, 23.7 µM.
With `CN(C)C(=S)Oc1ccc2ccc(=O)oc2c1`, the TGI in the assay on COLO 205 colon, in the assay on EKVX NSCLC, with LOX IMVI melanoma, with MCF7 breast, in the assay with NCI-H460 lung and with NCI/ADR-RES ovarian was > 100 µM in each case. Also, the TGI in the assay with OVCAR-4 ovarian, in the assay with SNB-75 CNS, in the assay with T-47D breast and in the assay with TK-10 renal was > 100 µM each time.
`CCOC(=O)c1cnccc1CC1(C#N)c2ccccc2C=CN1C(=O)c1ccccc1` (configuration not stated): the TGI is > 100 µM in the assay on COLO 205 colon; > 100 µM with EKVX NSCLC; 72.9 µM in the assay with LOX IMVI melanoma; > 100 µM in the assay on MCF7 breast; 89.5 µM in the assay with NCI-H460 lung; > 100 µM with NCI/ADR-RES ovarian. Moreover, the TGI in the assay with OVCAR-4 ovarian was > 100 µM; with SNB-75 CNS, 52.9 µM; in the assay with T-47D breast, > 100 µM; in the assay on TK-10 renal it was > 100 µM.
`Cc1ccc(-c2n[nH]c(=O)n2/N=C\c2ccccc2)cc1`: the TGI with COLO 205 colon, in the assay with EKVX NSCLC, in the assay on LOX IMVI melanoma, with MCF7 breast, with NCI-H460 lung and with NCI/ADR-RES ovarian was > 100 µM in each case. The TGI in the assay on OVCAR-4 ovarian was > 100 µM; with SNB-75 CNS it was 80.3 µM; in the assay with T-47D breast it was > 100 µM; with TK-10 renal, > 100 µM.
For `Nc1nc(Cl)cc(NCC2(O)CCCC2)n1`, the TGI in the assay on COLO 205 colon, in the assay with EKVX NSCLC, in the assay with LOX IMVI melanoma, in the assay with MCF7 breast, in the assay on NCI-H460 lung and in the assay on NCI/ADR-RES ovarian was > 100 µM each time. Also, the TGI in the assay on OVCAR-4 ovarian, in the assay on SNB-75 CNS, in the assay on T-47D breast and in the assay on TK-10 renal was > 100 µM throughout.
For `C=C1C(=O)O[C@H]2[C@H]3O[C@@H](C[C@@H]12)[C@](C)(O)CC[C@@H]1O[C@@]1(C)CCC[C@H]3C`, the TGI with COLO 205 colon is 30 µM; in the assay on EKVX NSCLC, 54.6 µM; in the assay with LOX IMVI melanoma, 35.7 µM; in the assay with MCF7 breast, 50.9 µM; in the assay on NCI-H460 lung it was 89 µM; with NCI/ADR-RES ovarian, > 100 µM. Further, the TGI with OVCAR-4 ovarian stood at 51.8 µM; in the assay with SNB-75 CNS, 96.1 µM; in the assay with T-47D breast, 82.4 µM; with TK-10 renal, 32.6 µM.
As for `NCCC1CN(C(=O)OCc2ccccc2)c2ccccc21` (configuration not stated), the TGI in the assay on COLO 205 colon amounted to 31.5 µM; in the assay on EKVX NSCLC, 84.4 µM; in the assay with LOX IMVI melanoma it was 17.1 µM; in the assay on MCF7 breast, 22.9 µM; in the assay on NCI-H460 lung it was 43.4 µM; with NCI/ADR-RES ovarian, 36.7 µM. Further, the TGI in the assay on OVCAR-4 ovarian is > 55.8 µM; in the assay on SNB-75 CNS, 43.3 µM; in the assay with T-47D breast, 28 µM; in the assay with TK-10 renal, > 54.8 µM.
With `S=C(NCc1ccccc1)N/N=C/c1ccccn1`, the TGI was > 100 µM in the assay on COLO 205 colon; > 100 µM in the assay on EKVX NSCLC; 21.5 µM with LOX IMVI melanoma; > 100 µM with MCF7 breast; > 75.6 µM with NCI-H460 lung; 8.52 µM with NCI/ADR-RES ovarian. Also, the TGI is > 100 µM in the assay on OVCAR-4 ovarian, 47.8 µM with SNB-75 CNS, > 100 µM in the assay with T-47D breast and > 100 µM in the assay with TK-10 renal.
For `NCCOCC(N)C(=O)O` (configuration not stated), the TGI in the assay with COLO 205 colon, in the assay with EKVX NSCLC, with LOX IMVI melanoma, with MCF7 breast, in the assay on NCI-H460 lung and in the assay with NCI/ADR-RES ovarian was > 100 µM throughout. The TGI in the assay on OVCAR-4 ovarian, in the assay with SNB-75 CNS, in the assay with T-47D breast and with TK-10 renal was > 100 µM in each case.
In the case of `C/C(Nc1ccc(Cl)cc1Cl)=C1/CCOC1=O`, the TGI with COLO 205 colon is > 100 µM; in the assay on EKVX NSCLC, 73.9 µM; with LOX IMVI melanoma it was > 100 µM; with MCF7 breast, > 100 µM; in the assay on NCI-H460 lung it was > 100 µM; in the assay with NCI/ADR-RES ovarian, > 100 µM. For the same molecule, the TGI was > 100 µM in the assay on OVCAR-4 ovarian, 66.1 µM in the assay on SNB-75 CNS, > 100 µM with T-47D breast and > 100 µM with TK-10 renal.
On to `O=[N+]([O-])c1ccc(C(Nc2ccccc2)c2ccc3cccnc3c2O)cc1` (configuration not stated), for which the TGI was 45.6 µM in the assay with COLO 205 colon; > 54.6 µM with EKVX NSCLC; 61 µM in the assay with LOX IMVI melanoma; > 75.6 µM with MCF7 breast; > 60.6 µM in the assay on NCI-H460 lung; > 69.3 µM in the assay with NCI/ADR-RES ovarian. In addition, the TGI with OVCAR-4 ovarian was determined as 47.7 µM; in the assay on SNB-75 CNS, 55.5 µM; with T-47D breast, 44.4 µM; in the assay with TK-10 renal, 68.8 µM.
As for `c1ccc(-c2nnn(CCN3CCCCC3)n2)cc1`, the TGI in the assay with COLO 205 colon, with EKVX NSCLC, in the assay on LOX IMVI melanoma, with MCF7 breast, in the assay with NCI-H460 lung and in the assay on NCI/ADR-RES ovarian was > 100 µM throughout. Moreover, the TGI in the assay with OVCAR-4 ovarian, with SNB-75 CNS, in the assay on T-47D breast and with TK-10 renal was > 100 µM throughout.
As to `CCOP(=O)(OCC)C(C)(CC)NC(=O)C(C(F)(F)F)C(F)(F)F` (configuration not stated), the TGI in the assay on COLO 205 colon, in the assay with EKVX NSCLC, in the assay on LOX IMVI melanoma, with MCF7 breast, with NCI-H460 lung and with NCI/ADR-RES ovarian was > 100 µM each time. Moreover, the TGI in the assay on OVCAR-4 ovarian is > 100 µM; in the assay on SNB-75 CNS, > 100 µM; with T-47D breast, > 100 µM and 99.7 µM; in the assay with TK-10 renal, > 100 µM. Moreover, the GI50 in the assay on SNB-75 CNS is > 71.6 µM; with T-47D breast it was > 51.5 µM and 21.1 µM.
For `CC(C)(C)OC(=O)n1cc(C2CN(O)C(=O)C23CCC(=O)N3Cc2ccccc2)c2ccccc21` (configuration not stated), the TGI in the assay with COLO 205 colon was > 100 µM; with EKVX NSCLC, 47.7 µM; with LOX IMVI melanoma, 55.3 µM; in the assay on MCF7 breast, > 100 µM; in the assay with NCI-H460 lung it was > 100 µM; with NCI/ADR-RES ovarian, > 100 µM. The TGI with OVCAR-4 ovarian, with SNB-75 CNS, with T-47D breast and in the assay with TK-10 renal was > 100 µM in each case.
For `NC1=NCC(CN2CCCC2)O1` (configuration not stated), the TGI in the assay with COLO 205 colon, in the assay with EKVX NSCLC, with LOX IMVI melanoma, with MCF7 breast, in the assay on NCI-H460 lung and in the assay with NCI/ADR-RES ovarian was > 100 µM in each case. Besides, the TGI in the assay with OVCAR-4 ovarian, with SNB-75 CNS, in the assay with T-47D breast and in the assay with TK-10 renal was > 100 µM each time.

These data come from PubChem BioAssay (NCI).
